Test results published in patent US20130150376A1, “Novel Sultam Compounds” (PFIZER INC., priority 2010, published 2013).
Counter-ions that a name gives are not always drawn. Like-named read-outs stand apart in the source and are kept apart here.

Biological target: T1, BACE1 enzyme (soluble, truncated BACE enzyme, BACE1deltaTM96His) (Homo sapiens, UniProt P56817)
T1 construct: soluble, truncated BACE enzyme (BACE1deltaTM96His); His; made in house
Experiment: BACE1 Fluorescent Polarization (FP) Assay
Type: biochemical
Settings: geometric mean of 2-4 IC50 determinations unless footnoted (^2: 5-6 determinations; ^4: single determination)
Description: BACE1 Fluorescent Polarization (FP) Assay
The fluorescently tagged synthetic substrate, Biotin-GLTNIKTEEISEISŶEVEFR-C[oregon green]KK-OH can be efficiently cleaved by the beta-secretase enzyme and is therefore useful to assay beta-secretase activity in the presence or absence of inhibitory compounds. The his tagged BACE1 enzyme was affinity purified material from conditioned media of CHO-K1 cells that had been transfected to express soluble, truncated BACE enzyme (BACE1deltaTM96His). Compounds were incubated in a ½ log dose response (from a top concentration of 100 μM) with BACE1 enzyme (0.1 nM final) and the biotinylated fluorescent peptide substrate (150 nM final) in assay buffer containing 100 mM sodium acetate, pH 4.5 (brought to pH with acetic acid), and 0.001% Tween-20. Total reaction volumes of 30 μL were carried out in 384-well black plates (Thermo Scientific 4318). Plates were covered and incubated for 3 hours at 37° C. The reactions were then stopped by addition of 30 μL of 1.5 μM Streptavidin (Pierce, 21125). After a 10 minute incubation at room temperature, plates were read on a PerkinElmer Envision for fluorescence polarization (Ex485 nm/Em530 nm). The activity of the beta-secretase enzyme is detected by changes in the fluorescence polarization (Δ mP) that occur when the substrate is cleaved by the enzyme.

[1] = 8-point curve, read-out: BACE activity, 8-point curve, IC50
[2] = 11-point curve, read-out: BACE activity, 11-point curve, IC50

T1 sequence (P56817 46-457): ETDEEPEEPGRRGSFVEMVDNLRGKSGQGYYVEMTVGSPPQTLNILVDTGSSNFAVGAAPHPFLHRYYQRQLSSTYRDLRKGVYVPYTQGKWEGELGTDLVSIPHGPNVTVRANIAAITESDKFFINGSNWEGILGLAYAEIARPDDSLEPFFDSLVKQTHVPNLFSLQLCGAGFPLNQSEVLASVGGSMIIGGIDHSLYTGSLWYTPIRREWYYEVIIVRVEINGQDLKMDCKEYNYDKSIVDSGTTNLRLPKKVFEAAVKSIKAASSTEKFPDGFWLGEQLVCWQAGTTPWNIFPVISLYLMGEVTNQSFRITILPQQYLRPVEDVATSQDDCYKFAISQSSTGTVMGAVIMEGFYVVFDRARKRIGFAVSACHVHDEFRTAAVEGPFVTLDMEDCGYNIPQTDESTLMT

`C[C@H]1C[C@@]2(C=CS(=O)(=O)N2c2cccc(F)c2)CCN1Cc1ncoc1-c1cccnc1` [Example 22, (5R,7S)-1-(3-fluorophenyl)-7-methyl-8-[(5-pyridin-3-yl-1,3-oxazol-4-yl)methyl]-2-thia-1,8-diazaspiro[4.5]dec-3-ene 2,2-dioxide, hydrochloride salt] gave an IC50 [1] of 414 nM.
Work on `C[C@H]1C[C@@]2(C=CS(=O)(=O)N2c2cccc(F)c2)CCN1Cc1ccc(O)c(C2CCCO2)c1` (single isomer, unassigned) [Example 30] yielded an IC50 [1] of 208 nM.
With `CC(C)Oc1cccc(CN2CC[C@]3(C=CS(=O)(=O)N3c3cccc(F)c3)C[C@@H]2C)c1` [Example 17, (5R,7S)-1-(3-fluorophenyl)-8-(3-isopropoxybenzyl)-7-methyl-2-thia-1,8-diazaspiro[4.5]dec-3-ene 2,2-dioxide] the IC50 [1] was 84.9 nM and the IC50 [2] was 908 nM.
`C[C@H]1C[C@@]2(C=CS(=O)(=O)N2c2cccc(F)c2)CCN1Cc1ncoc1C1CCCOC1` (stereo partly drawn) [Example 79, (5R,7S)-1-(3-fluorophenyl)-7-methyl-8-{[5-(tetrahydro-2H-pyran-3-yl)-1,3-oxazol-4-yl]methyl}-2-thia-1,8-diazaspiro[4.5]dec-3-ene 2,2-dioxide] showed an IC50 [1] of 189 nM and an IC50 [2] of 519 nM.
In the case of `C[C@H]1C[C@@]2(C=CS(=O)(=O)N2c2cccc(F)c2)CCN1Cc1scnc1CC1CC1` [Example 24, (5R,7S)-8-{[4-(cyclopropylmethyl)-1,3-thiazol-5-yl]methyl}-1-(3-fluorophenyl)-7-methyl-2-thia-1,8-diazaspiro[4.5]dec-3-ene 2,2-dioxide, hydrochloride salt], the IC50 [1] is reported as 51.9 nM and the IC50 [2] is reported as 353 nM.
In the case of `C[C@H]1C[C@]2(CCN1Cc1ccc3[nH]ccc3c1)CCS(=O)(=O)N2c1cccc(F)c1` [Example 51, (5R,7S)-1-(3-fluorophenyl)-8-(1H-indol-5-ylmethyl)-7-methyl-2-thia-1,8-diazaspiro[4.5]decane 2,2-dioxide], the IC50 [1] is reported as 2080 nM and the IC50 [2] is reported as 5640 nM.
For `Cc1cncc(-c2ncsc2CN2CC[C@]3(C=CS(=O)(=O)N3c3cccc(F)c3)C[C@@H]2C)c1` [Example 49, (5R,7S)-1-(3-fluorophenyl)-7-methyl-8-{[4-(5-methylpyridin-3-yl)-1,3-thiazol-5-yl]methyl}-2-thia-1,8-diazaspiro[4.5]dec-3-ene 2,2-dioxide, hydrochloride salt], the IC50 [1] was 6720 nM and the IC50 [2] was 15200 nM.
`C[C@H]1C[C@@]2(C=CS(=O)(=O)N2c2cccc(F)c2)CCN1Cc1ccc(O)c(OC2CC2)c1` [Example 14, 2-(cyclopropyloxy)-4-{[(5R,7S)-1-(3-fluorophenyl)-7-methyl-2,2-dioxido-2-thia-1,8-diazaspiro[4.5]dec-3-en-8-yl]methyl}phenol] was tested, and the IC50 [1] was 42.5 nM.
Compound `Cc1ccccc1-c1cccc(CN2CC[C@]3(C=CS(=O)(=O)N3c3cccc(F)c3)C[C@@H]2C)c1` [Example 54, (5R,7S)-1-(3-fluorophenyl)-7-methyl-8-[(2′-methylbiphenyl-3-yl)methyl]-2-thia-1,8-diazaspiro[4.5]dec-3-ene 2,2-dioxide] has an IC50 [1] of 53.3 nM and an IC50 [2] of 137 nM.
`CC(C)Cc1ocnc1CN1CC[C@]2(C=CS(=O)(=O)N2c2cccc(F)c2)C[C@@H]1C` [Example 12, (5R,7S)-1-(3-fluorophenyl)-8-[(5-isobutyl-1,3-oxazol-4-yl)methyl]-7-methyl-2-thia-1,8-diazaspiro[4.5]dec-3-ene 2,2-dioxide] showed an IC50 [1] of 338 nM.
With `Cc1scnc1-c1cc(CN2CC[C@]3(CCS(=O)(=O)N3c3ccccn3)C[C@@H]2C)ccc1O` [Example 90, 4-{[(5R,7S)-7-methyl-2,2-dioxido-1-(pyridin-2-yl)-2-thia-1,8-diazaspiro[4.5]dec-8-yl]methyl}-2-(5-methyl-1,3-thiazol-4-yl)phenol] the IC50 [2] was 3280 nM.
`C[C@H]1C[C@@]2(C=CS(=O)(=O)N2c2cccc(F)c2)CCN1Cc1ccc(O)c(C2CCC2)c1` [Example 75, 2-cyclobutyl-4-{[(5R,7S)-1-(3-fluorophenyl)-7-methyl-2,2-dioxido-2-thia-1,8-diazaspiro[4.5]dec-3-en-8-yl]methyl}phenol] showed an IC50 [2] of 41.8 nM.
For `C[C@H]1C[C@]2(CCN1Cc1ccc(O)c(Cl)c1)CCS(=O)(=O)N2c1cccc(F)c1` [Example 29, 2-chloro-4-{[(5R7S)-1-(3-fluorophenyl)-7-methyl-2,2-dioxido-2-thia-1,8-diazaspiro[4.5]dec-8-yl]methyl}phenol, hydrochloride salt], the IC50 [1] was 332 nM and the IC50 [2] was 1530 nM.
For `Cc1cccnc1-c1cc(CN2CC[C@@]3(C[C@@H]2C)C(=O)CS(=O)(=O)N3c2cccc(F)c2)ccc1O` [Example 85, (5R,7S)-1-(3-fluorophenyl)-8-[4-hydroxy-3-(3-methylpyridin-2-yl)benzyl]-7-methyl-2-thia-1,8-diazaspiro[4.5]decan-4-one 2,2-dioxide], the IC50 [2] was 715 nM.
For `Cc1ccncc1-c1cccc(CN2CC[C@]3(CCS(=O)(=O)N3c3cccc(F)c3)C[C@@H]2C)c1` [Example 55, (5R,7S)-1-(3-fluorophenyl)-7-methyl-8-[3-(4-methy|pyridin-3-yl)benzyl]-2-thia-1,8-diazaspiro[4.5]decane 2,2-dioxide, hydrochloride salt], the IC50 [1] was 392 nM and the IC50 [2] was 1020 nM.
Compound `Cc1ncsc1-c1ocnc1CN1CC[C@]2(C=CS(=O)(=O)N2c2cccc(F)c2)C[C@@H]1C` [Example 36, (5R,7S)-1-(3-fluorophenyl)-7-methyl-8-{[5-(4-methyl-1,3-thiazol-5-yl)-1,3-oxazol-4-yl]methyl}-2-thia-1,8-diazaspiro[4.5]dec-3-ene 2,2-dioxide] has an IC50 [1] of 2510 nM and an IC50 [2] of 6290 nM.
Work on `C[C@H]1C[C@@]2(C=CS(=O)(=O)N2c2cccc(F)c2)CCN1Cc1ccc(O)c(C2CCCO2)c1` (mixture of isomers) [Example 11, 4-{[(5R,7S)-1-(3-fluorophenyl)-7-methyl-2,2-dioxido-2-thia-1,8-diazaspiro[4.5]dec-3-en-8-yl]methyl}-2-(tetrahydrofuran-2-yl)phenol] yielded an IC50 [1] of 53.3 nM.
`C[C@H]1C[C@@]2(C=CS(=O)(=O)N2c2cccc(F)c2)CCN1Cc1ncoc1-c1cccs1` [Example 34, (5R,7S)-1-(3-fluorophenyl)-7-methyl-8-{[5-(2-thienyl)-1,3-oxazol-4-yl]methyl}-2-thia-1,8-diazaspiro[4.5]dec-3-ene 2,2-dioxide, hydrochloride salt] gave an IC50 [2] of 5890 nM.
`Cc1scnc1-c1cc(CN2CC[C@@]3(C[C@@H]2C)C(=O)CS(=O)(=O)N3c2cccc(F)c2)ccc1O` [Example 83, (5R,7S)-1-(3-fluorophenyl)-8-[4-hydroxy-3-(5-methyl-1,3-thiazol-4-yl)benzyl]-7-methyl-2-thia-1,8-diazaspiro[4.5]decan-4-one 2,2-dioxide] gave an IC50 [2] of 240 nM.
For `COC1=CS(=O)(=O)N(c2cccc(F)c2)[C@@]12CCN(Cc1cccc(OC(C)C)c1)[C@@H](C)C2` [Example 63, (5R,7S)-1-(3-fluorophenyl)-8-(3-isopropoxybenzyl)-4-methoxy-7-methyl-2-thia-1,8-diazaspiro[4.5]dec-3-ene 2,2-dioxide], the IC50 [1] was 5820 nM.
`C[C@H]1C[C@]2(CCN1Cc1ncoc1-c1cccs1)CCS(=O)(=O)N2c1cccc(F)c1` [Example 56, (5R,7S)-1-(3-fluorophenyl)-7-methyl-8-{[5-(2-thienyl)-1,3-oxazol-4-yl]methyl}-2-thia-1,8-diazaspiro[4.5]decane 2,2-dioxide, hydrochloride salt] gave an IC50 [2] of 15400 nM.
In the case of `C[C@H]1C[C@]2(CCN1Cc1ccc(O)c(C3CCC3)c1)C(=O)CS(=O)(=O)N2c1cccc(F)c1` [Example 84, (5R,7S)-8-(3-cyclobutyl-4-hydroxybenzyl)-1-(3-fluorophenyl)-7-methyl-2-thia-1,8-diazaspiro[4.5]decan-4-one 2,2-dioxide], the IC50 [2] is reported as 337 nM.
Work on `COc1ccc2[nH]c(CN3CC[C@]4(CCS(=O)(=O)N4c4cccc(F)c4)C[C@@H]3C)cc2c1` [Example 53, (5R,7S)-1-(3-fluorophenyl)-8-[(5-methoxy-1H-indol-2-yl)methyl]-7-methyl-2-thia-1,8-diazaspiro[4.5]decane 2,2-dioxide] yielded an IC50 [1] of 2290 nM and an IC50 [2] of 4460 nM.
Compound `Cc1ccccc1-c1cccc(CN2CC[C@]3(CCS(=O)(=O)N3c3cccc(F)c3)C[C@@H]2C)c1` [Example 52, (5R,7S)-1-(3-fluorophenyl)-7-methyl-8-[(2′-methylbiphenyl-3-yl)methyl]-2-thia-1,8-diazaspiro[4.5]decane 2,2-dioxide, formate salt] has an IC50 [1] of 40.5 nM.
For `Cc1cncc(-c2ocnc2CN2CC[C@]3(CCS(=O)(=O)N3c3cccc(F)c3)C[C@@H]2C)c1` [Example 57, (5R,7S)-1-(3-fluorophenyl)-7-methyl-8-{[5-(5-methylpyridin-3-yl)-1,3-oxazol-4-yl]methyl}-2-thia-1,8-diazaspiro[4.5]decane 2,2-dioxide, hydrochloride salt], the IC50 [2] was 4080 nM.
With `C[C@H]1CCO[C@H]1c1ocnc1CN1CC[C@]2(C=CS(=O)(=O)N2c2cccc(F)c2)C[C@@H]1C` (relative stereo) [Example 69, (5R,7S)-1-(3-fluorophenyl)-7-methy1-8-({5-[cis-3-methyltetrahydrofuran-2-yl]-1,3-oxazol-4-yl}methyl)-2-thia-1,8-diazaspiro[4.5]dec-3-ene 2,2-dioxide] the IC50 [2] was 7070 nM.
